Experimental data: ChEMBL document CHEMBL1126367, “The discovery of a novel calcium channel blocker related to the structure of potassium channel opener cromakalim” (Bioorg Med Chem Lett, 1992); call rule not given here
Blank lines part the entries; values can stand above or below the compound they belong to.

Assays:
Rattus norvegicus [1] = assay: Compound was evaluated for the antihypertensive activity at a dose of 45 umol/kg given orally; No significant effect on blood pressure.; type: functional, organism-based
Rattus norvegicus [2] = organism: Rattus norvegicus; assay: Vasorelaxant potency by relaxation of the methoxamine contracted rat aorta; type: functional
Cavia porcellus [3] = organism: Cavia porcellus; assay: Percent inhibition of inward calcium current by 100 uM of the compound; type: functional; set-up: scale not given: the % may be the effect or the level left
Cavia porcellus [4] = organism: Cavia porcellus; assay: Percent inhibition of inward calcium current by 10 uM of the compound; type: functional; set-up: scale not given: the % may be the effect or the level left
Cavia porcellus [5] = organism: Cavia porcellus; assay: Percent inhibition of inward calcium current by 50 uM of the compound; type: functional; set-up: scale not given: the % may be the effect or the level left
Rattus norvegicus [6] = assay: The compound was evaluated for the antihypertensive activity at a dose of 45 umol/kg given orally; type: functional
Rattus norvegicus [7] = assay: Compound was evaluated for the antihypertensive activity at a dose of 45 umol/kg given orally; No significant effect on blood pressure; type: functional, organism-based
Rattus norvegicus [8] = assay: The compound was evaluated for the antihypertensive activity at a dose of 45 umol/kg given orally.; type: functional

- IC50 (Rattus norvegicus [2]): 440 nM
SMILES: CC1(C)Oc2c(c(=O)n(Cc3ccccc3)c3ccccc23)[C@@H](N2CCCC2=O)[C@@H]1O
- IC50 (Rattus norvegicus [1]): Not Active
- Activity (Cavia porcellus [3]): 55%
- Activity (Cavia porcellus [4]): 30%
- Activity (Cavia porcellus [5]): 46%

SMILES: CC1(C)Oc2ccc(C#N)cc2[C@@H](N2CCCC2=O)[C@@H]1O [CROMAKALIM]
- Activity (Rattus norvegicus [6]): 63%

- IC50 (Rattus norvegicus [2]): 2380 nM
SMILES: COc1ccc([C@@H]2Sc3ccccc3N(CCN(C)C)C(=O)[C@@H]2OC(C)=O)cc1 [DILTIAZEM]
- IC50 (Rattus norvegicus [7]): Not Active

SMILES: COC(=O)C1=C(C)NC(C)=C(C(=O)OC)C1c1ccccc1[N+](=O)[O-] [NIFEDIPINE]
- Activity (Rattus norvegicus [8]): 33%
- IC50 (Rattus norvegicus [2]): 4 nM
